Assay results as given in publication PMC3127123, “Effect of 2-Hydroxypropyl-β-cyclodextrin on Solubility of Sparingly Soluble Drug Derivatives of Anthranilic Acid” (International Journal of Molecular Sciences, 2011).
Values after ≈ are worked out from the molar mass of the structure shown. Like-named read-outs stand apart in the source and are kept apart here.

Legend:
[1] = Phase solubility study: effect of 2HP-β-CD on drug solubility and cyclodextrin-drug complex stability/dissociation constants; assay type: physicochemical; conditions: for cyclodextrin-drug complex stability constant Ks: 1:1 complex, Higuchi-Connors; for Kd: Kd = 1/Ks, value is Kd multiplied by 10^3, read-out: dissociation constant Kd·10^3; for solubility enhance ratio (R): drug concentration at highest 2HP-β-CD concentration relative to no cyclodextrin; for stability constant log Ks: pH = 7, T = 298.15 K, our value, phase solubility
Protocol: Solubility enhance ratio, R, was calculated as a drug concentration at the highest cyclodextrin concentration with relation to drug concentration in the absence of cyclodextrin. […] The opposite effect is observed for NIF. […] In general, when the solubility of the drug is very low, the solubility enhance ratio, R is high. Substitution of hydroxyl groups surrounding the 2HP-β-CD rim by the hydroxypropyl group promotes the complex formation process for drug derivatives of anthranilic acid with polar carboxylic substituent. […] Measurements of cyclodextrin-drug complex stability constants Ks and dissociation constants Kd are very important since these values indicate changes in physicochemical properties of a compound upon inclusion. Linear dependence of drug concentration to cyclodextrin concentration, with slope ratio below one usually assumes 1:1 ratio of complex. The stability constant, Ks, for complexes with 1:1 ratio is represented by: (1) Ks=[CD]/[D]⋅[C] Where: [D] is pure drug concentration, [C] is pure cyclodextrin concentration, and [CD] is concentration of drug-cyclodextrin complexes in solution. Complex dissociation constant, Kd, is represented by: […] For such systems, stability constant can be obtained by the following equation, investigated previously by Higuchi and Connors, 1965 [25]: (3) Ks=K1:1=slope/c0⋅(1−slope) […] Maximum drug concentration was measured at different cyclodextrins concentrations, temperatures and pHs. […] Samples were thermostated and mixed for 20 hours and then left for 4 hours for separation. The uncertainties of the temperature measurements were judged to be 0.1 K. Absorbance of each sample was measured with the UV-vis spectrophotometer. The stability constants were determined by the measurements of the concentration of the drug in the sample as a function of the cyclodextrin concentration. Such a method is usually called “Phase solubility study” [31]. In this method complex stability constants are calculated from the obtained solubility data using a spectophotometric method. As a reference sample, the buffer + 2HP-β-CD solutions were used. Two buffers were prepared (mol concentration) i.e., potassium dihydrogen phosphate (0.008), disodium hydrogen phosphate (0.008; buffer, pH = 7.0), potassium dihydrogen phosphate (0.05), hydrochloric acid (0.05, buffer, pH = 2.0). Samples were scanned with a scan step of 1 nm from 650 to 190 nm. Measurements at pH = 10 were not performed in all systems, because of the necessity of using too high drug concentrations and because of problems with separation of two phases.

[2] = T = 298.15 K, cited from earlier work
[3] = Thermodynamic parameters of complexation from temperature dependence of stability constant (van't Hoff); assay type: physicochemical; conditions: T = 298.15 K, pH = 7 (buffer solution)
Source text: Thermodynamic parameters of reactions i.e. the free energy change (ΔG), the enthalpy change (ΔH) and the entropy change (ΔS), can be obtained from the temperature dependence of stability constant.

[4] = Phase solubility study: drug solubility in buffer solutions by UV-vis spectrophotometry; assay type: physicochemical; conditions: buffer solution without cyclodextrin, thermodynamic from solid, no cyclodextrin, read-out: solubility (C) in water (buffer solution), CD
Protocol: The calibration curves are included in these figures. The absorption spectra were recorded in the range of 190–350 nm and for the calculation of […] the change of absorption was measured at 340 nm (pH 7.0), 195 nm (pH 2.0) for MEF; 245 nm (pH 7.0), and 250 nm (pH 2.0) for NIF and 255 nm (pH 7.0), and 225 nm (pH 2.0) for FLU, respectively.
The UV-Vis spectrophotometer (Perkin–Elmer Life and Analytical Sciences, Shelton, USA) was used to determine the 2HP-β-CD influence on drug solubility. Maximum drug concentration was measured at different cyclodextrins concentrations, temperatures and pHs. Samples contained buffer solution with pH 7 or 2, 2HP-β-CD in different concentrations, i.e., 0, 1, 2, 4, 7 or 10 mmol·dm^−3 and drug in excess. Samples were thermostated and mixed for 20 hours and then left for 4 hours for separation. The uncertainties of the temperature measurements were judged to be 0.1 K. Absorbance of each sample was measured with the UV-vis spectrophotometer.
The stability constants were determined by the measurements of the concentration of the drug in the sample as a function of the cyclodextrin concentration. Such a method is usually called “Phase solubility study” [31]. In this method complex stability constants are calculated from the obtained solubility data using a spectophotometric method. As a reference sample, the buffer + 2HP-β-CD solutions were used. Two buffers were prepared (mol concentration) i.e., potassium dihydrogen phosphate (0.008), disodium hydrogen phosphate (0.008; buffer, pH = 7.0), potassium dihydrogen phosphate (0.05), hydrochloric acid (0.05, buffer, pH = 2.0). Samples were scanned with a scan step of 1 nm from 650 to 190 nm. Measurements at pH = 10 were not performed in all systems, because of the necessity of using too high drug concentrations and because of problems with separation of two phases.

[5] = cited from earlier work
[6] = parameters: method as in earlier work; conditions: aqueous ethanol; cited from earlier work
[7] = pH 2, aqueous buffer, pH 2, T = 298.15 K
[8] = pH 2, aqueous buffer, pH 2, T = 310.15 K
[9] = pH 7, aqueous buffer, pH 7, T = 298.15 K
[10] = pH 7, aqueous buffer, pH 7, T = 310.15 K
[11] = previous work, densimetry and 1H NMR measurements

Structure (SMILES)	cyclodextrin-drug complex stability constant Ks ([1]; pH 2, T = 298.15 K)	Kd ([1]; pH 2, T = 298.15 K)	solubility enhance ratio (R) ([1]; pH 2, T = 298.15 K)	cyclodextrin-drug complex stability constant Ks ([1]; pH 2, T = 310.15 K)	Kd ([1]; pH 2, T = 310.15 K)	solubility enhance ratio (R) ([1]; pH 2, T = 310.15 K)	cyclodextrin-drug complex stability constant Ks ([1]; pH 7, T = 298.15 K)	Kd ([1]; pH 7, T = 298.15 K)	solubility enhance ratio (R) ([1]; pH 7, T = 298.15 K)	cyclodextrin-drug complex stability constant Ks ([1]; pH 7, T = 310.15 K)	Kd ([1]; pH 7, T = 310.15 K)	solubility enhance ratio (R) ([1]; pH 7, T = 310.15 K)	entropy change (ΔS) of complexation [3]	free energy change (ΔG) of complexation [3]	solubility at 20 h [4, 7]	solubility at 20 h [4, 8]	solubility at 20 h [4, 9]	solubility at 20 h [4, 10]	stability constant log Ks [1]	also measured
Cc1cccc(Nc2ccccc2C(=O)O)c1C [Mefenamic acid]	539 M⁻¹	1.86 mM	6.4	1627 M⁻¹	0.62 mM	17.3	383 M⁻¹	2.61 mM	4.6	562 M⁻¹	1.78 mM	6.0	−33.0 J·mol^−1·K^−1	-3.51 kcal/mol	1 µM (≈ 0.241 µg/mL)	1 µM (≈ 0.241 µg/mL)	155 µM (≈ 37.4 µg/mL)	220 µM (≈ 53.1 µg/mL)		solubility in water ([2]; pH between 3 and 6): 0.87 × 10^−4 mmol·dm^−3
O=C(O)c1cccnc1Nc1cccc(C(F)(F)F)c1 [Niflumic acid]	26 M⁻¹	38.9 mM	1.3	33 M⁻¹	29.2 mM	1.3	96 M⁻¹	10.4 mM	1.6	82 M⁻¹	12.2 mM	1.5	4.3 J·mol^−1·K^−1	-2.7 kcal/mol	698 µM (≈ 197 µg/mL)	925 µM (≈ 261 µg/mL)	5750 µM (≈ 1620 µg/mL)	8170 µM (≈ 2310 µg/mL)	1.98	enthalpy change (ΔH) of complexation [3]: -2.39 kcal/mol; stability constant log Ks ([5]; 1H NMR, pH = 7.4, T = 298.15 K): 2.3; free energy change (ΔG) of complexation ([5]; T = 298.15 K, pH = 7.4): -2.94 kcal/mol; stability constant log Ks ([5]; UV-vis, pH = 7.4, T = 298.15 K): 3.09; stability constant log Ks ([5]; calorimetric measurements, pH = 7.4, T = 298.15 K): 2.2; stability constant log Ks ([5]; densimetry, pH = 7.4, T = 298.15 K): 2.8; stability constant log Ks ([5]; pH = 7, T = 298.15 K, cyclodextrin not named at the place): 2.72; stability constant log Ks ([5]; pH = 12, T = 298.15 K, cyclodextrin not named at the place): 2.53; enthalpy of complexation [5, 11]: -4.8 kcal/mol; entropy of complexation [5, 11]: negative
O=C(O)c1ccccc1Nc1cccc(C(F)(F)F)c1 [Flufenamic acid]	3055 M⁻¹	0.33 mM	31.0	1850 M⁻¹	0.54 mM	19.0	202 M⁻¹	4.95 mM	2.9	218 M⁻¹	4.59 mM	3.0	50.2 J·mol^−1·K^−1		6 µM (≈ 1.69 µg/mL)	15 µM (≈ 4.22 µg/mL)	228 µM (≈ 64.1 µg/mL)	298 µM (≈ 83.8 µg/mL)	2.30	solubility in water [2]: 2.38 × 10^−2 mmol·dm^−3; stability constant log Ks ([5]; phase-solubility diagrams, pH = 6.75, T = 298.15 K): 2.36
Oc1cc(Cl)ccc1Oc1ccc(Cl)cc1Cl [triclosan]																				solubility increase on complexation with 2HP-β-CD [6]: 70 fold
